{"source": "BindingDB's records for doi:10.1021/jm0003891", "about": "(The R. W. Johnson Pharmaceutical Research Institute, 2001)", "note": "Where “and” joins values, the source holds several entries; their conditions need not be identical. Identical values can stand only once."}
{"assay": "In vitro binding affinity against alpha-2D adrenergic receptor of male Wistar rat"}
{"compound": "CC(c1cnc[nH]1)c1sccc1Br", "note": "(centres undefined)", "Ki": "0.96 nM and 0.18 nM"}
{"compound": "Cc1ccsc1C(C)c1cnc[nH]1", "note": "(centres undefined)", "Ki": "0.78 nM and 2.1 nM"}
{"compound": "Cc1cc(Cc2cnc[nH]2)c(C)s1", "Ki": "0.69 nM"}
{"compound": "CCc1cc(Cc2cnc[nH]2)c(CC)s1", "Ki": "0.4 nM"}
{"compound": "c1ccc2sc(Cc3cnc[nH]3)cc2c1", "Ki": "1.1 nM"}
{"compound": "Cc1csc(Cc2cnc[nH]2)c1C", "Ki": "0.17 nM"}
{"compound": "c1ccc2c(Cc3cnc[nH]3)csc2c1", "Ki": "0.09 nM"}
{"compound": "Cc1csc(C)c1Cc1cnc[nH]1", "Ki": "0.1 nM"}
{"compound": "Cc1cscc1C(C)c1cnc[nH]1", "note": "(centres undefined)", "Ki": "0.39 nM"}
{"compound": "Brc1ccsc1Cc1cnc[nH]1", "Ki": "0.35 nM"}
{"compound": "Cc1csc(C(C)c2cnc[nH]2)c1C", "note": "(centres undefined)", "Ki": "0.75 nM"}
{"compound": "CCC(c1cnc[nH]1)c1cscc1C", "note": "(centres undefined)", "Ki": "0.97 nM"}
{"compound": "Clc1cc(Cc2cnc[nH]2)c(Cl)s1", "Ki": "0.088 nM"}
{"compound": "COC(c1cnc[nH]1)c1sccc1Br", "note": "(centres undefined)", "Ki": "39 nM"}
{"compound": "Cc1sccc1Cc1cnc[nH]1", "Ki": "0.44 nM"}
{"compound": "Cc1sccc1C(C)c1cnc[nH]1", "note": "(centres undefined)", "Ki": "2.3 nM"}
{"compound": "Cc1cscc1Cc1cnc[nH]1", "Ki": "0.47 nM"}
{"compound": "c1ncc(Cc2ccsc2)[nH]1", "Ki": "3.1 nM"}
{"compound": "c1ncc(Cc2cc3c(s2)CCCC3)[nH]1", "Ki": "3.7 nM"}
{"compound": "CCc1cscc1Cc1cnc[nH]1", "Ki": "0.29 nM"}
{"compound": "Cc1ccsc1Cc1cnc[nH]1", "Ki": "0.45 nM"}
{"compound": "CC(c1cnc[nH]1)c1cscc1Br", "note": "(centres undefined)", "Ki": "0.08 nM"}
{"compound": "Brc1csc(Cc2cnc[nH]2)c1Br", "Ki": "0.07 nM"}
{"compound": "CCc1sccc1Cc1cnc[nH]1", "Ki": "0.07 nM"}
{"compound": "c1csc(Cc2cnc[nH]2)c1", "Ki": "8.7 nM"}
{"compound": "Cc1ccc(Cc2cnc[nH]2)s1", "Ki": "3.6 nM"}
{"compound": "COC(c1cnc[nH]1)c1cscc1C", "note": "(centres undefined)", "Ki": "15.9 nM"}
{"compound": "Cc1ccsc1C1(c2cnc[nH]2)CC1", "Ki": "1000 nM"}
{"compound": "CCc1cscc1C(C)c1cnc[nH]1", "note": "(centres undefined)", "Ki": "0.28 nM"}
{"compound": "Brc1cscc1Cc1cnc[nH]1", "Ki": "0.23 nM"}
{"compound": "CC(C)c1cc(Cc2cnc[nH]2)c(C(C)C)s1", "Ki": "12 nM"}
{"compound": "CCC(c1cnc[nH]1)c1sccc1C", "note": "(centres undefined)", "Ki": "8.3 nM"}
{"compound": "CC(c1cnc[nH]1)c1scc(Br)c1Br", "note": "(centres undefined)", "Ki": "0.43 nM"}
{"compound": "Cc1cccc([C@H](C)c2cnc[nH]2)c1C", "note": "[4-[(1S)-1-(2,3-dimethylphenyl)ethyl]-1H-imidazole]", "Ki": "0.015 nM"}
